Data published in patent US5654427A, “Indolocarbazole derivatives to treat a pathological condition of the prostate” (Kyowa Hakko Kogyo Co., Ltd., priority 1995, dated 1997).

Legend:
[1] = target: T1, trkA (Rattus norvegicus, UniProt P35739); assay: inhibition of NGF-stimulated trk autophosphorylation (tyrosine phosphorylation) in PC12 cells, anti-phosphotyrosine Western blot; assay type: cell-based; conditions: 100 nM compound, NGF 50 ng/ml; further: key: +: Inhibited phosphorylation; -: Did not inhibit phosphorylation
T1 construct: are rat pheochromocytoma cells that bear trkA; host or cells: PC12 rat pheochromocytoma cells

[2] = tested on: Du-Pro1; assay: growth inhibition of Du-Pro1 prostate cancer cells (calcein fluorescence); assay type: cell-based; conditions: Homo sapiens, 72 h; 3 days incubation; read-out: Du-Pro1 IC50
Description: (§1) Throughout the experiment the Tsu-Pr1 and Du-Pro1 cells were maintained in RPMI 1640 medium (GIBCO) containing 10% fetal bovine serum (Hyclone), 2 mM glutamine, 100 U/ml penicillin, and 100 μg/ml streptomycin. The PC-3 cells were maintained in Ham's F12K medium (Irvine Scientific) containing 10% fetal bovine serum (Hyclone), 2 mM glutamine, 100 U/ml penicillin, and 100 μg/ml streptomycin. All cell lines were maintained at 37° C. in a humidified atmosphere containing 5% CO2. The DU-145 cells were maintained in minimal essential medium (Gibco), containing 10% fetal bovine serum (Hyclone), 2 mM glutamine, and no antibiotics.
(§2) Tests for growth inhibition by the candidate compounds were conducted by the following procedure. In each well of a 96-well plate (Falcon) were placed 2,500 cells in 0.1 ml of medium. The cultures were incubated overnight after which a 0.1 ml aliquot of culture medium was added to each well. […] Other control wells received medium without any K-252a derivative compounds. Incubation was continued for three days. On day three the number of cells in each well was measured using a calcein fluorescence assay (Bozyczko-Coyne et al. J. Neurosci. Meth. 50, 205-216 (1993)).
(§3) Calcein AM (Molecular Probes, Eugene, Oreg.), an analog of the viable dye fluorescein diacetate, is taken up by cells and cleaved intracellularly to fluorescent salts that are retained by intact membranes of viable cells. This method thus provides a reliable and quantitative measurement of cell survival. Calcein AM was diluted 2× in Dulbeccos phosphate buffered saline (D-PBS) to 2× the final assay concentration (6 μM) and 100 μl was added to culture wells containing 100 μl of medium. The plates were then incubated for 1 hour at 37° C. Cells were then washed 4 times with D-PBS to remove excess calcein not taken up by cells. The plate was read using a Millipore plate reading fluorimeter (Cytofluor 2350) at emission=485 nm and excitation=538 nm. After subtraction of blank values (wells containing medium but no cells), relative fluorescent values reflect a quantitative measurement of cell survival.
(§4) The number of cells in the wells containing functional derivatives was compared to the number of cells in the control wells. The concentration which inhibited cell growth by 50% was calculated and is referred to as the "IC50 ".

[3] = tested on: PC-3; assay: growth inhibition of PC-3 prostate cancer cells (calcein fluorescence); assay type: cell-based; conditions: Homo sapiens, PC-3, 72 h; 3 days incubation; read-out: PC-3 IC50
Description: as §1, §2
(§5) Calcein AM (Molecular Probes, Eugene, Oreg.), an analog of the viable dye fluorescein diacetate, is taken up by cells and cleaved intracellularly to fluorescent salts that are retained by intact membranes of viable cells. This method thus provides a reliable and quantitative measurement of cell survival. Calcein AM was diluted 2× in Dulbeccos phosphate buffered saline (D-PBS) to 2× the final assay concentration (6 μM) and 100 μl was added to culture wells containing 100 μl of medium. The plates were then incubated for 1 hour at 37° C. Cells were then washed 4 times with D-PBS to remove excess calcein not taken up by cells. The plate was read using a Millipore plate reading fluorimeter (Cytofluor 2350) at emission=485 nm and excitation=538 nm. After subtraction of blank values (wells containing medium but no cells), relative fluorescent values reflect a quantitative measurement of cell survival. […]

[4] = tested on: DU-145; assay: growth inhibition of DU-145 prostate cancer cells (calcein fluorescence); assay type: cell-based; conditions: Homo sapiens, DU-145, 72 h; 3 days incubation; read-out: DU-145 C50
Description: as §1, §2, §3, §4

[5] = tested on: androgen independent human prostate cancer cell lines Tsu-Pr1, DuPro-1, PC-3 and DU-145; assay: growth inhibition of prostate cancer-derived cell lines, overall (calcein fluorescence); assay type: cell-based; conditions: Table 3
Description: as §1, §2, §5

[6] = tested on: prostate glands; assay: inhibition of prostate growth in sexually immature mice (weight of prostate glands); assay type: in vivo; conditions: for Ventral Prostate weight / Dorsal Prostate weight / Coagulat-ing Glands weight / Seminal Vesicles weight: Table 6; for Ventral Prostate weight: TEPBS 14.0 ± 0.8; for Dorsal Prostate weight: TEPBS 14.6 ± 1.4; for Coagulat-ing Glands weight: TEPBS 29.6 ± 2.0; for Seminal Vesicles weight: TEPBS 71.4 ± 2.4
Description: (§6) The following animal model can be used to test the efficacy of a functional derivative for treatment of a proliferative prostate condition. Sexually immature male mice of 15-20 g each (Charles River Laboratories, Raleigh, N.C.) were used in the following in vivo study. The mice were allowed at least 3 days after purchase to acclimate before being used in any experiments.
(§7) Each test group contained 12 mice. […] At the end of the 21 day dosing period the mice were sacrificed and whole body blood, dorsal prostate, ventral prostate, coagulating glands, seminal vesicles, heart, liver, stomach, lung, kidneys and testes were collected separately and weighed.

[7] = body weight and weight of peripheral organs in sexually immature mice; conditions: for Body Weight: Table 6, TEPBS 32.0 ± 0.6; for Heart weight / Testes weight / Stomach weight / Lung weight / Kidney weight / Liver weight: Table 7; for Heart weight: TEPBS 170 ± 10; for Testes weight: TEPBS 206 ± 8; for Stomach weight: TEPBS 272 ± 14; for Lung weight: TEPBS 280 ± 15; for Kidney weight: TEPBS 589 ± 34; for Liver weight: TEPBS 2004 ± 69
Description: as §6, §7

T1 sequence (P35739 33-799): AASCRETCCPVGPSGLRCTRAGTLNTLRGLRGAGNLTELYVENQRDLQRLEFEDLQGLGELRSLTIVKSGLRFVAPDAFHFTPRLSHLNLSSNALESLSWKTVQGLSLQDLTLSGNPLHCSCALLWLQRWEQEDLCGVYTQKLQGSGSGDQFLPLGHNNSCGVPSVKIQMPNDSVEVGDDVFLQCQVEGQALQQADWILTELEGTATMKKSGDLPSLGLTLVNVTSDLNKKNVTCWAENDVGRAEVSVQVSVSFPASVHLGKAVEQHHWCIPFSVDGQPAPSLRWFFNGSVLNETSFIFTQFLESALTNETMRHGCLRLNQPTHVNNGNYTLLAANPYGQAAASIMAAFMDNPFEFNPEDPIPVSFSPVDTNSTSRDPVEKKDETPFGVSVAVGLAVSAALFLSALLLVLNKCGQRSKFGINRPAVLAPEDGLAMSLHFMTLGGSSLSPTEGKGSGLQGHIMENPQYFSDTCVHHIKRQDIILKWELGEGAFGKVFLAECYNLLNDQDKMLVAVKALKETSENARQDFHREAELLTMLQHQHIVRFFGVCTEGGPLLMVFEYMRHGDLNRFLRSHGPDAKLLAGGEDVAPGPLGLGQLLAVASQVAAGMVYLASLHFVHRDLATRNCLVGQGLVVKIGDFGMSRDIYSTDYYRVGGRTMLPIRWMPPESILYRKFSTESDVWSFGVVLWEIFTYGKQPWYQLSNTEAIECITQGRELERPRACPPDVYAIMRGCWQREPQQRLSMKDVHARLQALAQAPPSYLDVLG

In the case of `COC1(CO)CC2OC1(C)n1c3ccccc3c3c4c(c5c6ccccc6n2c5c31)C(=O)NC4` (centres unmarked) [Compound I-19], the “trk 100 nM (inhibition of phosphorylation)” value [1] is reported as “+”, the IC50 [2] is reported as 270 nM and the IC50 [3] is reported as 5000 nM. For the same compound, the IC50 [4] was 110 nM, the “potency in inhibiting prostate cell line growth, in words” value [5] was “most potent compounds in inhibiting growth in all four cell lines” and the “weights of ventral prostate, dorsal prostate, seminal vesicles, and coagulating glands, in words” value ([6]; 1 mg/kg) was “significantly reduced the weights of ventral prostate, dorsal prostate, seminal vesicles, and coagulating glands”. The “weights of ventral prostate, dorsal prostate, seminal vesicles, and coagulating glands, in words” value ([6]; 10 mg/kg) was “significantly reduced the weights of ventral prostate, dorsal prostate, seminal vesicles, and coagulating glands”, the “Ventral Prostate weight” value ([6]; 1 mg/kg) was 11.0 ± 0.9 mg and the “Dorsal Prostate weight” value ([6]; 1 mg/kg) was 10.4 ± 0.9 mg. For the same compound, the “Coagulat-ing Glands weight” value ([6]; 1 mg/kg) was 24.6 ± 1.4 mg, the “Seminal Vesicles weight” value ([6]; 1 mg/kg) was 60.0 ± 2.2 mg and the “Ventral Prostate weight” value ([6]; 10 mg/kg) was 10.5 ± 0.6 mg. For the same compound, the “Dorsal Prostate weight” value ([6]; 10 mg/kg) was 7.2 ± 0.8 mg, the “Coagulat-ing Glands weight” value ([6]; 10 mg/kg) was 23.6 ± 0.8 mg and the “Seminal Vesicles weight” value ([6]; 10 mg/kg) was 52.0 ± 2.0 mg. For the same compound, the “Body Weight” value ([7]; 1 mg/kg) was 31.9 ± 0.8 g, the “Body Weight” value ([7]; 10 mg/kg) was 31.2 ± 0.5 g and the Heart weight ([7]; 1 mg/kg) was 160 ± 20 mg. The Testes weight ([7]; 1 mg/kg) was 205 ± 7 mg, the Stomach weight ([7]; 1 mg/kg) was 252 ± 12 mg and the Lung weight ([7]; 1 mg/kg) was 323 ± 16 mg. For the same compound, the Kidney weight ([7]; 1 mg/kg) was 467 ± 18 mg, the Liver weight ([7]; 1 mg/kg) was 1968 ± 58 mg and the Heart weight ([7]; 10 mg/kg) was 166 ± 8 mg. The Testes weight ([7]; 10 mg/kg) was 208 ± 8 mg, the Stomach weight ([7]; 10 mg/kg) was 242 ± 11 mg and the Lung weight ([7]; 10 mg/kg) was 276 ± 18 mg. For the same compound, the Kidney weight ([7]; 10 mg/kg) was 563 ± 17 mg and the Liver weight ([7]; 10 mg/kg) was 1933 ± 70 mg.
